Measured values reported in patent US10758534B2 (Vertex Pharmaceuticals Incorporated, priority 2014, dated 2020).

molecular target: T1, F508del (Homo sapiens, UniProt P13569, DEL508-508); assay: Protocol 2: FRET membrane potential optical assay (VIPR), identification of correction compounds; format: cell-based; details: F508del CFTR modulator activity; compounds of Table 1; read-out: EC30
T1 construct: expressed in transfected cells
How it was run: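 Corrector readout: membrane-potential FRET (CC2-DMPE donor, DiSBAC2(3) acceptor) on VIPR II after Cl⁻-free gluconate bath with 10 μM forskolin and 20 μM genistein. Before this, F508del-expressing NIH3T3 cells were exposed to test compound for 16 h at 37 °C without serum; 27 °C incubation served as temperature-correction control.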

T1 sequence (P13569 with tags, fused parts or gaps DEL508-508): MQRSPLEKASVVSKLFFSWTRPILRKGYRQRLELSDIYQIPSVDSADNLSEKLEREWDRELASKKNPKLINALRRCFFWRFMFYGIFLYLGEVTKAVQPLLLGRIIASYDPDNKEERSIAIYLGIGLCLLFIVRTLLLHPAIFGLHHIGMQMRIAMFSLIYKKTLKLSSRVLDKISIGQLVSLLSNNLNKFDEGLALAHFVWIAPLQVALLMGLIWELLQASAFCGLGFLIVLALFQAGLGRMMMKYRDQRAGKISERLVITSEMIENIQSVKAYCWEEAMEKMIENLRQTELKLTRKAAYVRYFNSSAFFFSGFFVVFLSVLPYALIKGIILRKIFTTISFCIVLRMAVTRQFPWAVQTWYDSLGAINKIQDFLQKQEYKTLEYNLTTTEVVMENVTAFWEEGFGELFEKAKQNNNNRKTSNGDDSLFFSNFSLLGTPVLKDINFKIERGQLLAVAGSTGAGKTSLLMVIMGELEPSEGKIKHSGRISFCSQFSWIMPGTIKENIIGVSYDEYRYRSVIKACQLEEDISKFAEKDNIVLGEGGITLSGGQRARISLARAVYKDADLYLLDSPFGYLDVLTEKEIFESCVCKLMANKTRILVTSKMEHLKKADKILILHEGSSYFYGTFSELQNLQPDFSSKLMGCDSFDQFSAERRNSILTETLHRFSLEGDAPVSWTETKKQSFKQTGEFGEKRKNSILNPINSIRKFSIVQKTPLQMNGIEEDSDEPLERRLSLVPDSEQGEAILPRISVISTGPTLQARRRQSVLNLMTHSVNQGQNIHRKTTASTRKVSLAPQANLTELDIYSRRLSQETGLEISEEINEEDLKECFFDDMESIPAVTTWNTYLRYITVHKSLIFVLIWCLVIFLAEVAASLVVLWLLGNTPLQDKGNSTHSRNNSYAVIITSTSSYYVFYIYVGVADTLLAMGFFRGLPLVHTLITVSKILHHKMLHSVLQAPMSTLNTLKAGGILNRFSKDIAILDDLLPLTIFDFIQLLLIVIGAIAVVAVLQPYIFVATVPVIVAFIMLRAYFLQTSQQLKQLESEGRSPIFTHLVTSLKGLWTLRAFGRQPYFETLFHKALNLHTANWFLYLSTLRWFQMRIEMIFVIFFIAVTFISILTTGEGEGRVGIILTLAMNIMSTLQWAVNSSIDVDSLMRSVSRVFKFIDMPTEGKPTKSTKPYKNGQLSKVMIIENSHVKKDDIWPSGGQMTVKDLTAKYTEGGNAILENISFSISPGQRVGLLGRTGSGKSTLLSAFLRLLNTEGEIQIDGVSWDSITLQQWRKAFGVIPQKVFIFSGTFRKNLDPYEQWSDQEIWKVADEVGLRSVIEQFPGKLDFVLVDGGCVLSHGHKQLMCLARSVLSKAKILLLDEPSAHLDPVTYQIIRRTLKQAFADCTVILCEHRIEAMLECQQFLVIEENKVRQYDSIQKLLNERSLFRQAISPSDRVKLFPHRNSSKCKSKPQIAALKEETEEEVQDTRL

SMILES | EC30 [nM]
Cc1ccc(Oc2cccc(S(=O)(=O)NC(=O)c3cccnc3N3CC(C)CC3(C)C)n2)cc1 (stereo not drawn) [Compound 2460, N—[[6-(4-methylphenoxy)-2-pyridyl]sulfonyl]-2-(2,2,4-trimethylpyrrolidin-1-yl)pyridine-3-carboxamide] | < 3000
CC1CN(c2ncccc2C(=O)NS(=O)(=O)c2cccc(Oc3cccc(Cl)c3)n2)C(C)(C)C1 (stereo not drawn) [Compound 2461, N—[[6-(3-chlorophenoxy)-2-pyridyl]sulfonyl]-2-(2,2,4-trimethylpyrrolidin-1-yl)pyridine-3-carboxamide] | < 3000
CC1CN(c2ncccc2C(=O)NS(=O)(=O)c2cccc(OCc3cc(F)cc(F)c3)n2)C(C)(C)C1 (stereo not drawn) [Compound 2462, N—[[6-[(3,5-difluorophenyl)methoxy]-2-pyridyl]sulfonyl]-2-(2,2,4-trimethylpyrrolidin-1-yl)pyridine-3-carboxamide] | < 3000
CC1CN(c2ncc(-c3ccc(C(C)(C)C)cc3)cc2C(=O)NS(=O)(=O)c2cccc(N)n2)C(C)(C)C1 (stereo not drawn) [Compound 2463, N-[(6-amino-2-pyridyl)sulfonyl]-5-(4-tert-butylpenyl)-2-(2,2,4-trimethylpyrrolidin-1-yl)pyridine-3-carboxamide] | < 3000
CC1CN(c2ncccc2C(=O)NS(=O)(=O)c2cccc(N3CCOCC3)n2)C(C)(C)C1 (stereo not drawn) [Compound 2464, N-[(6-morpholino-2-pyridyl)sulfonyl]-2-(2,2,4-trimethylpyrrolidin-1-yl)pyridine-3-carboxamide] | 3000 to 10000
COc1cccc(CCNc2cccc(S(=O)(=O)NC(=O)c3cccnc3N3CC(C)CC3(C)C)n2)c1 (stereo not drawn) [Compound 2465, N—[[6-[2-(3-methoxyphenyl)ethylamino]-2-pyridyl]sulfonyl]-2-(2,2,4-trimethylpyrrolidin-1-yl)pyridine-3-carboxamide] | < 3000
CC1CN(c2ncccc2C(=O)NS(=O)(=O)c2cccc(Nc3ccc(C(F)(F)F)nc3)n2)C(C)(C)C1 (stereo not drawn) [Compound 2466, N—[[6-[[6-(trifluoromethyl)-3-pyridyl]amino]-2-pyridyl]sulfonyl]-2-(2,2,4-trimethylpyrrolidin-1-yl)pyridine-3-carboxamide] | < 3000
C[C@@H]1CN(c2nc(-c3ccc4cc(O)ccc4c3)ccc2C(=O)NS(=O)(=O)c2cccnc2N)C(C)(C)C1 [Compound 2468, N-[(2-amino-3-pyridyl)sulfonyl]-6-(6-hydroxy-2-naphthyl)-2-[(4S)-2,2,4-trimethylpyrrolidin-1-yl]pyridine-3-carboxamide] | < 3000
CC1CN(c2ncccc2C(=O)NS(=O)(=O)c2cccc(O[C@H](C)Cc3ccccc3)n2)C(C)(C)C1 (stereo partly drawn) [Compound 2470, N—[[6-[(1R)-1-methyl-2-phenyl-ethoxy]-2-pyridyl]sulfonyl]-2-(2,2,4-trimethylpyrrolidin-1-yl)pyridine-3-carboxamide] | < 3000
Cc1cc(-c2ccc(C(=O)NS(=O)(=O)N3CC[C@H](N)C3)c(N3C[C@@H](C)CC3(C)C)n2)ccc1F [Compound 2472, N-[(3S)-3-aminopyrrolidin-1-yl]sulfonyl-6-(4-fluoro-3-methyl-phenyl)-2-[(4S)-2,2,4-trimethylpyrrolidin-1-yl]pyridine-3-carboxamide] | 3000 to 10000
CC(C)COc1cc(F)cc(-c2nc(N3C[C@@H](C)CC3(C)C)c(C(=O)NS(=O)(=O)c3cccc(N)n3)cc2F)c1 [Compound 2473, N-[(6-amino-2-pyridyl)sulfonyl]-5-fluoro-6-(3-fluoro-5-isobutoxy-phenyl)-2-[(4S)-2,2,4-trimethylpyrrolidin-1-yl]pyridine-3-carboxamide] | < 3000
C[C@@H]1CN(c2nc(C(C)(C)C)c(C(O)C(O)C3CCCCC3)cc2C(=O)NS(=O)(=O)c2cccc(N)n2)C(C)(C)C1 (stereo partly drawn) [Compound 2475] | < 3000
CC1CN(c2ncccc2C(=O)NS(=O)(=O)c2cccc(OCc3ccc(C(F)(F)F)nc3)n2)C(C)(C)C1 (stereo not drawn) [Compound 2476, N—[[6-[[6-(trifluoromethyl)-3-pyridyl]methoxy]-2-pyridyl]sulfonyl]-2-(2,2,4-trimethylpyrrolidin-1-yl)pyridine-3-carboxamide] | < 3000
CC(C)COc1cc(F)cc(-c2ccc(C(=O)NS(=O)(=O)c3cccc(N)n3)c(N3CCC(C)CC(C)C3)n2)c1 (stereo not drawn) [Compound 2479, N-[(6-amino-2-pyridyl)sulfonyl]-2-(3,5-dimethylazepan-1-yl)-6-(3-fluoro-5-isobutoxy-phenyl)pyridine-3-carboxamide] | < 3000
CC1CN(c2ncccc2C(=O)NS(=O)(=O)c2cccc(Nc3cccc(C#N)c3)n2)C(C)(C)C1 (stereo not drawn) [Compound 2484, N—[[6-(3-cyanoanilino)-2-pyridyl]sulfonyl]-2-(2,2,4-trimethylpyrrolidin-1-yl)pyridine-3-carboxamide] | < 3000
CC1CN(c2ncccc2C(=O)NS(=O)(=O)c2cccc(Oc3ccccc3C(C)C)n2)C(C)(C)C1 (stereo not drawn) [Compound 2486, N—[[6-(2-isopropylphenoxy)-2-pyridyl]sulfonyl]-2-(2,2,4-trimethylpyrrolidin-1-yl)pyridine-3-carboxamide] | < 3000
CCOc1cc(C)cc(-c2ccc(C(=O)NS(=O)(=O)c3cc[nH]n3)c(N3C[C@@H](C)CC3(C)C)n2)n1 [Compound 2487, 6-(6-ethoxy-4-methyl-2-pyridyl)-N-(1H-pyrazol-3-ylsulfonyl)-2-[(4S)-2,2,4-trimethylpyrrolidin-1-yl]pyridine-3-carboxamide] | < 3000
CCOC(=O)C1CCN(c2cccc(S(=O)(=O)NC(=O)c3cccnc3N3CC(C)CC3(C)C)n2)CC1 (stereo not drawn) [Compound 2488, ethyl 1-[6-[[2-(2,2,4-trimethylpyrrolidin-1-yl)pyridine-3-carbonyl]sulfamoyl]-2-pyridyl]piperidine-4-carboxylate] | < 3000
C[C@@H]1CN(c2nc(-c3cc(F)ccc3F)ccc2C(=O)NS(=O)(=O)N2CC[C@H](N)C2)C(C)(C)C1 [Compound 2489, N-[(3S)-3-aminopyrrolidin-1-yl]sulfonyl-6-(2,5-difluorophenyl)-2-[(4S)-2,2,4-trimethylpyrrolidin-1-yl]pyridine-3-carboxamide] | 3000 to 10000
Cc1ccc(F)cc1-c1ccc(C(=O)NS(=O)(=O)N2CC[C@H](N)C2)c(N2C[C@@H](C)CC2(C)C)n1 [Compound 2490, N-[(3S)-3-aminopyrrolidin-1-yl]sulfonyl-6-(5-fluoro-2-methyl-phenyl)-2-[(4S)-2,2,4-trimethylpyrrolidin-1-yl]pyridine-3-carboxamide] | < 3000

Other lines, results leading:

EC30 [nM] | SMILES
< 3000 | CCOc1cc(-c2ccc(C(=O)NS(=O)(=O)c3ccc[nH]c3=O)c(N3C[C@@H](C)CC3(C)C)n2)ccc1F [Compound 2459, 6-(3-ethoxy-4-fluoro-phenyl)-N-[(2-oxo-1H-pyridin-3-yl)sulfonyl]-2-[(4S)-2,2,4-trimethylpyrrolidin-1-yl]pyridine-3-carboxamide]
< 3000 | CC(C)Cc1ccc(C(=O)NS(=O)(=O)c2ccc[nH]c2=O)c(N2C[C@@H](C)CC2(C)C)n1 [Compound 2467, 6-isobutyl-N-[(2-oxo-1H-pyridin-3-yl)sulfonyl]-2-[(4S)-2,2,4-trimethylpyrrolidin-1-yl]pyridine-3-carboxamide]
3000 to 10000 | COc1ccc(-c2ccc(C(=O)NS(=O)(=O)c3ccc[nH]c3=O)c(N3C[C@@H](C)CC3(C)C)n2)c(C)c1 [Compound 2469, 6-(4-methoxy-2-methyl-phenyl)-N-[(2-oxo-1H-pyridin-3-yl)sulfonyl]-2-[(4S)-2,2,4-trimethylpyrrolidin-1-yl]pyridine-3-carboxamide]
3000 to 10000 | Cc1ccc2nc(N3C[C@@H](C)CC3(C)C)c(C(=O)NS(=O)(=O)c3ccc[nH]c3=O)cc2c1 [Compound 2471, 6-methyl-N-[(2-oxo-1H-pyridin-3-yl)sulfonyl]-2-[(4S)-2,2,4-trimethylpyrrolidin-1-yl]quinoline-3-carboxamide]
< 3000 | COc1ccc(F)c(-c2ccc(C(=O)NS(=O)(=O)c3cccnc3N)c(N3C[C@@H](C)CC3(C)C)n2)c1 [Compound 2474, N-[(2-amino-3-pyridyl)sulfonyl]-6-(2-fluoro-5-methoxy-phenyl)-2-[(4S)-2,2,4-trimethylpyrrolidin-1-yl]pyridine-3-carboxamide]
< 3000 | C[C@@H]1CN(c2nc(-c3cccc4[nH]ccc34)ccc2C(=O)NS(=O)(=O)c2cccnc2N)C(C)(C)C1 [Compound 2478, N-[(2-amino-3-pyridyl)sulfonyl]-6-(1H-indol-4-yl)-2-[(4S)-2,2,4-trimethylpyrrolidin-1-yl]pyridine-3-carboxamide]
3000 to 10000 | C[C@@H]1CN(c2nc(-c3ccccc3O)ccc2C(=O)NS(=O)(=O)c2ccc[nH]c2=O)C(C)(C)C1 [Compound 2480, 6-(2-hydroxyphenyl)-N-[(2-oxo-1H-pyridin-3-yl)sulfonyl]-2-[(4S)-2,2,4-trimethylpyrrolidin-1-yl]pyridine-3-carboxamide]
< 3000 | COc1cc(F)ccc1-c1ccc(C(=O)NS(=O)(=O)c2cccnc2N)c(N2C[C@@H](C)CC2(C)C)n1 [Compound 2482, N-[(2-amino-3-pyridyl)sulfonyl]-6-(4-fluoro-2-methoxy-phenyl)-2-[(4S)-2,2,4-trimethylpyrrolidin-1-yl]pyridine-3-carboxamide]
< 3000 | CC(C)c1ccc(-c2ccc(C(=O)NS(=O)(=O)c3ccc[nH]c3=O)c(N3C[C@@H](C)CC3(C)C)n2)cc1 [Compound 2483, 6-(4-isopropylphenyl)-N-[(2-oxo-1H-pyridin-3-yl)sulfonyl]-2-[(4S)-2,2,4-trimethylpyrrolidin-1-yl]pyridine-3-carboxamide]
< 3000 | COc1ccccc1-c1ccc(C(=O)NS(=O)(=O)c2ccc[nH]c2=O)c(N2C[C@@H](C)CC2(C)C)n1 [Compound 2485, 6-(2-methoxyphenyl)-N-[(2-oxo-1H-pyridin-3-yl)sulfonyl]-2-[(4S)-2,2,4-trimethylpyrrolidin-1-yl]pyridine-3-carboxamide]
